What all share (experiment): growth of human tumour cells (NCI), 48 h
In experiment [1] the test system is MOLT-4 leukemia.
In experiment [2] the test system is MDA-MB-231 breast.
The subject of experiment [3] is SF-295 CNS.
The subject of experiment [4] is UACC-257 melanoma.
The test system of experiment [5] is SK-MEL-28 melanoma.
In experiment [6] the test system is SR leukemia.
For experiment [7], the system named is COLO 205 colon.
Experiment [8] relates to LOX IMVI melanoma.
Experiment [9] concerns SK-MEL-2 melanoma.
Experiment [10] has as its system OVCAR-3 ovarian.
Experiment [11] deals with RXF 393 renal.
The subject of experiment [12] is MALME-3M melanoma.

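1) Cells in 96-well plates. 2) Compound, 48 h, 5 concentrations. 3) Linear interpolation between surrounding doses. 4) Unreached endpoint = highest concentration. Definition used: TGI = concentration required for complete inhibition of growth.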

For the compound `CN(C)C12C=CC=CC3=C(c4ccccc4)C(c4ccccc4)=C(c4ccccc4)C31c1ccccc1C2` (stereo unspecified), the TGI in experiment [1], in [2], in experiment [3], in experiment [4], in experiment [5] and in [6] was above 100 µM in each case. This compound displayed a TGI in [7] above 100 µM.

Consider `CC1CCC2C(C)C(OC(=O)CCC(=O)O)OC3OC4(C)CCC1C32OO4` (stereo unspecified), for which the TGI in [1] was 15 µM; in experiment [2] it was above 100 µM; in [3], above 100 µM; in [8] it was 2.92 µM; in experiment [4] it was above 100 µM; in [5], above 100 µM. The TGI in experiment [9] was 42.3 µM; in experiment [6], 3.37 µM; in experiment [7] it was 6.71 µM; in [10], above 100 µM.

On to `Cn1c(=O)oc2cc(C(O)CN3CCN(Cc4ccc5c(c4)OCO5)CC3)ccc21` (stereo unspecified), for which the TGI in experiment [11], in experiment [1], in [2], in experiment [12], in experiment [3] and in experiment [8] was above 100 µM in each case. The TGI in experiment [4], in experiment [5], in experiment [6], in experiment [7] and in experiment [10] was above 100 µM throughout.

Consider `COc1ccc(NCc2cccc3c(=O)c4ccc(Cl)cc4oc23)cc1`, for which the TGI in experiment [1], in [2], in experiment [12], in experiment [3], in experiment [8] and in experiment [4] was above 100 µM in each case. The TGI in [5], in [9], in experiment [6], in experiment [7] and in experiment [10] was above 100 µM each time.

With `C=C1[C@@H](OC(C)=O)/C=C/C2C3C(=O)[C@@](C)(OC(C)=O)[C@H]([C@H](OC(C)=O)[C@]4(O)[C@@H](C)C(=O)O[C@H]4[C@H]1Cl)[C@@]23C` (stereo partly specified), the TGI in experiment [11], in experiment [1], in [2], in [12], in experiment [3] and in experiment [8] was above 100 µM throughout. Moreover, the TGI in [4], in experiment [5], in [9], in experiment [7] and in experiment [10] was above 100 µM in each case.

Turning to `CN(C)/C=N/c1cc(=O)n(C)c(=O)n1C`, the TGI in experiment [11], in experiment [1], in experiment [2], in [12], in experiment [3] and in [8] was above 100 µM throughout. Also, the TGI in [4], in [5], in experiment [9], in experiment [7] and in [10] was above 100 µM throughout.

Take `O=C(O[C@H](/C=C/c1ccccc1)P1(=O)N(Cc2ccccc2)[C@H]2CCCC[C@@H]2N1Cc1ccccc1)c1ccccc1`: the TGI in [2] was 25.7 µM; in experiment [12], 25.6 µM; in [3] it was above 100 µM; in experiment [8], 11.6 µM; in experiment [4], above 100 µM; in experiment [5] it was above 100 µM. Moreover, the TGI in [9] is 6.19 µM; in [6], above 100 µM; in experiment [7], 3.27 µM; in experiment [10], above 100 µM.

As for `C=C(Cl)[C@](Cl)(CBr)CC[C@@H](Br)C(C)(C)Cl`, the TGI in [11] stood at 0.576 µM; in [1], 31.9 µM; in experiment [2], 3.39 µM; in experiment [12], 24.2 µM; in [3], 2.23 µM; in [8], 32.1 µM. Further, the TGI was determined as 2.99 µM in experiment [4]; 3.27 µM in experiment [5]; 25.5 µM in experiment [6]; 3.41 µM in experiment [7]; 1.58 µM in experiment [10].

Consider `Cc1ccc(N=NC(=O)NNc2ccc(C)cc2Br)c(Br)c1`, for which the TGI is 60.4 µM in [1]; above 100 µM in experiment [2]; 36.4 µM in experiment [12]; 34.5 µM in experiment [8]; 79.8 µM in experiment [4]; 47.4 µM in experiment [5]. Besides, the figures for the TGI in experiment [9], in [6] and in [10] were 32 µM, 90.1 µM and 41.2 µM, respectively.

On to `S=c1[nH]nc(COc2ccc(Cl)cc2)n1-c1ccccc1`, for which the TGI in [11], in experiment [1], in [2], in [12], in experiment [3] and in [8] was above 100 µM each time. The TGI in experiment [4], in experiment [5], in [9], in experiment [7] and in [10] was above 100 µM throughout.

In the case of `Cc1c(CN2CCOCC2)c(CN2CCOCC2)c(C)n1-c1ccc(Cl)cn1`, the TGI in [11], in experiment [1], in experiment [2], in [12], in [3] and in experiment [4] was above 100 µM each time. For the same compound, the TGI in experiment [5], in [9], in [6], in experiment [7] and in experiment [10] was above 100 µM throughout.

Turning to `O=C1CC(=O)NC(=NN2C(=O)CSC2c2ccc(Cl)cc2)N1` (stereo unspecified), the TGI in [11], in experiment [1], in [2], in experiment [12], in experiment [3] and in [4] was above 100 µM throughout. Further, the TGI in experiment [5], in experiment [9], in experiment [6], in experiment [7] and in experiment [10] was above 100 µM in each case.

Consider `COC(=O)c1ccccc1C1CN=NC12Cc1cc3c(cc1C2=O)CCC3` (stereo unspecified), for which the TGI in [11], in experiment [1], in experiment [2], in experiment [12], in experiment [3] and in [8] was above 100 µM each time. Also, the TGI in experiment [4], in experiment [5], in [9], in experiment [7] and in [10] was above 100 µM in each case.

As for `C#CCC(O)c1ccc(OC)c(OCc2ccccc2)c1` (stereo unspecified), the TGI in experiment [11] was above 100 µM; in [1], 56.6 µM; in [2], above 100 µM; in [12], above 100 µM; in experiment [3], above 100 µM; in experiment [8] it was above 100 µM. Also, the TGI in [4], in [5], in [9], in [7] and in [10] was above 100 µM throughout.

Turning to `C=C1C(=O)O[C@H]2C(=O)[C@H](C)CCC/C(C)=C/CC[C@@]3(C)O[C@@H]3C[C@@H]12`, the TGI in experiment [1] came out at 4.72 µM; in experiment [2], 23.3 µM; in experiment [3] it was 27.3 µM; in experiment [8], 3.03 µM; in experiment [4], 11.7 µM; in [9] it was 20.9 µM. The TGI in experiment [6] is 10.5 µM; in experiment [7] it was 3.54 µM; in [10] it was 3.52 µM.

In the case of `O=S(=O)(N=[Se](=O)(c1ccccc1)c1ccccc1)c1ccccc1`, the TGI in experiment [1], in experiment [2], in [3], in [8], in experiment [5] and in experiment [9] was above 100 µM in each case. For the same compound, the TGI in [6], in experiment [7] and in [10] was above 100 µM each time.

For the compound `C#CC(O)/C=C/C(O)CCCC(O)CC#CC(O)C#CCCCCC(O)/C=C/CCCCCC(=O)CCCCCCCCCCCCCC(O)C(O)C#CC(=O)O` (stereo unspecified), the TGI in experiment [1] is above 25 µM; in experiment [2], above 25 µM; in experiment [12], above 25 µM; in [3], above 25 µM; in [8], 9.88 µM; in experiment [4], above 25 µM. The TGI in experiment [5] is above 25 µM; in experiment [9] it was above 25 µM; in [6] it was 19.1 µM; in experiment [7], above 25 µM.

For `COC(=O)c1ccccc1/C=C1\Cc2ccc3c(c2C1=O)CCC3`, the TGI in experiment [11], in experiment [1], in [2], in experiment [12], in [3] and in experiment [8] was above 100 µM throughout. Besides, the TGI in experiment [4], in experiment [5], in [6], in experiment [7] and in experiment [10] was above 100 µM each time.

As to `CC(=O)Nn1c(Cc2ccc(Cl)cc2)nn(C)c1=O`, the TGI in experiment [1], in experiment [2], in [12], in experiment [3], in experiment [8] and in experiment [4] was above 100 µM in each case. The TGI in experiment [5], in [9], in experiment [6], in experiment [7] and in experiment [10] was above 100 µM each time.

(Values after PubChem BioAssay (NCI).)
